Laboratory results reported in paper PMC4213378, “Pharmacokinetics and Efficacy of the Spleen Tyrosine Kinase Inhibitor R406 after Ocular Delivery for Retinoblastoma” (Pharmaceutical Research, 2014).

Legend:
[1] = Plasma pharmacokinetics after oral or subconjunctival administration; format: in vivo, mouse; conditions: local (subconjunctival), mice
Method: (§1) For oral delivery of R788, the target dose of 25 mg/kg R788 was administered by oral gavage as a 4 mM solution in 0.01 N citrate buffer, pH 6 ([9]). For subconjunctival administration, R788 was prepared at a concentration of 4 mM in 2% PEG-800 and filtered through a 0.22 μm filter prior to use (see Table S1). R788 was also administered subconjunctivally as a suspension at a concentration of 25 mM in 10% 2-hydroxylpropyl-β-cyclodextrin (HPβCD, Sigma-Aldrich). For subconjunctival administration, R406 phenylsulfonate salt was administered at a concentration of 800–900 μM as a cosolvent solution in a formulation of 5% Cremaphor-eL, 0.5% ethanol, 0.2% Tween 80 and 94.3% PBS, filtered through a 0.22 μm filter prior to use (see Table S2). R406 phenylsulfonate salt was also administered subconjunctivally at a dose of 31.4 mM solution in DMSO. R406 free base was administered subconjunctivally at a concentration of 6.5 mM as a 25% castor oil (Sigma-Aldrich) emulsion. This emulsion was prepared by mixing castor oil: ethanol (1:1) solution of R406 (approx. 35 mM), in vacuo evaporation of the ethanol, and centrifugation to remove any excess R406, then emulsifying the R406 oil phase in an aqueous phase comprised of Cremaphor-eL, Tween 80 and PBS (final composition of the emulsion: 25% castor oil, 5% Cremaphor-eL, 0.2% Tween-80, 69.8% PBS) by probe sonication. For intravitreal injection, R788 solution was prepared by filtering a 0.12 mM (120 μM) solution of R788 in saline through a 0.22 μm filter. […] For topical delivery, 25–30 mM suspensions were prepared in 5% HPβCD. R406 or R788 concentration in all formulations was determined by UPLC prior to study (in cases where formulation was filtered before administration, concentration was determined post-filtering) Table I.
(§2) For the systemic delivery study R788 was administered as a single bolus dose (25 mg/kg, 10 mL/kg volume) by oral gavage. For the subconjunctival administration study R788 or R406 (10 µL of formulation) was injected into the subconjunctival space of an anesthetized mouse using a Hamilton microliter syringe (Hamilton company, Reno NV). For the intravitreal administration study, R788 (5 μL of […] in saline) was administered to each eye via direct injection. To perform the intravitreal injection, mice were anesthetized, a small incision between the sclera and the cornea was created with a […] needle, and the R788 was injected into the vitreous using a Hamilton microliter syringe. For the topical administration study, R406 (2 μL of 25–30 mM suspension) was applied as a drop to the surface of each eye of an anesthetized mouse.
(§3) At serial time points (0.5, 1, 2, 4, and 8 h post-injection, n = 3 for each time point), blood was collected by terminal cardiac puncture after isoflurane anesthesia. Whole-blood samples were centrifuged immediately at 10,000×g for 5 min at 4°C to separate plasma. Once the cardiac puncture and blood collection was completed, the animal was perfused with 10 mL of saline and euthanized by cervical dislocation. Eyes were removed, rinsed in PBS, gently patted dry, then rinsed and dried again. Eyes were dissected and vitreous was collected. Plasma and vitreous samples were put on dry ice immediately after collection and stored at −80°C until analysis. For quantitative analysis methods and assay validation methods and results, see Supplementary Information.
(§4) Plasma and vitreous concentration time data were analyzed using non-compartmental analysis in WinNonlin 6.2 (Pharsight, Mountain View, CA), providing PK parameters including Cmax (maximum observed concentration), Tmax (time to reach maximum observed concentration), AUC (area under the concentration time curve) and MRT (mean residence time). AUC and AUMC (area under the concentration time first moment curve) values were estimated with the linear trapezoidal method, with parameters calculated using mean concentration values at each time point. […]

[2] = Vitreous pharmacokinetics after oral or subconjunctival administration; format: in vivo, mouse
Method: as §1, §2, §3, §4

[3] = system: RB355 retinoblastoma cells; test: RB355 cell viability (Cell Titer Glo) after varied exposure durations; format: cell-based
Method: RB355 retinoblastoma cells were maintained in RPMI medium (Lonza RPMI-1640) supplemented with 10% FBS (Equitech-Bio), penicillin, streptomycin, and glutamate (Gibco). BJ cells were grown in EMEM (Lonza) supplemented with 10% FBS, penicillin and streptomycin. 293T cells were grown in DMEM supplemented with 10% FBS, penicillin, streptomycin, and glutamate. Cells were passaged every 3-4 days or when they reached 70%-80% confluence.
RB335 cells were seeded in 6-well dishes. Seeded cells were incubated overnight at 37 °C in a humidified 5% CO2 incubator. Cells were treated with DMSO alone, 1, 2.5, or 5 µM R406 and returned to the incubator. At 0, 6, 12, 18, 24, and 72 h, the drugged media was removed from a subset of samples (n=3 samples per cell line) and replaced with drug-free media, washing out the R406 for the remainder of the 72 h incubation. After 72 hours, cells were suspended and aliquoted into a 96 well plate assaying viability (50 µL of cells per well, each sample assayed in duplicate and averaged). Plates were equilibrated at room temperature for 20 min before addition of 50 μL Cell Titer Glo (Promega) to each well. Plates were shaken on an orbital shaker for 2 min at 500 rpm. Luminescence was read after 15 min on an Envision plate reader (Perkin Elmer). Dissociated cells were also stained for caspase and EdU. […]

[4] = co-solvent solution 0.88 mM, 8.8 nmol per eye
[5] = local (subconjunctival), DMSO 31.4 mM, 314 nmol per eye, mice
[6] = local (subconjunctival), co-solvent solution 0.88 mM, 8.8 nmol per eye, mice

In the case of COc1cc(Nc2ncc(F)c(Nc3ccc4c(n3)NC(=O)C(C)(C)O4)n2)cc(OC)c1OC.O=S(=O)(O)c1ccccc1 [R406 phenylsulfonate salt], the Cmax ([1]; DMSO 31.4 mM, 314 nmol per eye) is reported as 370 nM, the “Plasma AUClast” value ([1]; DMSO 31.4 mM, 314 nmol per eye) is reported as 0.298 µM·h and the “Plasma Dose normalized AUC” value ([1]; DMSO 31.4 mM, 314 nmol per eye) is reported as 0.5 nM∙h/nmol. The “Plasma Tlast” value ([1]; DMSO 31.4 mM, 314 nmol per eye) was 4 h, the “Plasma Tmax” value ([1]; DMSO 31.4 mM, 314 nmol per eye) was 30 min and the Cmax [1, 4] was 79 nM. The “Plasma AUClast” value [1, 4] was 0.0429 µM·h, the “Plasma Dose normalized AUC” value [1, 4] was 2.4 nM∙h/nmol and the “Plasma Tlast” value [1, 4] was 1 h. For the same compound, the “Plasma Tmax” value [1, 4] was 30 min, the “ratio of vitreous AUC to plasma AUC relative to R788 in suspension (250 nmol per eye)” value ([2]; R406 salt administered locally, 314 nmol total per eye) was 22 fold and the Cmax [2, 5] was 892 ± 350 nM. For the same compound, the “Ratio Vitreous AUClast/Plasma AUClast” value [2, 5] was 6.6, the “Vitreous AUClast” value [2, 5] was 1,960 nM∙h and the “Vitreous Dose normalized AUC” value [2, 5] was 3.1 nM∙h/nmol. For the same compound, the “Vitreous MRT0-4h” value [2, 5] was 121 min, the “Vitreous Tlast” value [2, 5] was 4 h and the “Vitreous Tmax” value [2, 5] was 30 min. The “Vitreous MRT0-4h” value ([2]; local (subconjunctival), DMSO 31.4 mM, 314 nmol per eye, mice, listed as R406 salt) was ≥ 120 min, the Cmax [2, 6] was 41.3 ± 18 nM and the “Vitreous AUClast” value [2, 6] was 33.7 nM·h. For the same compound, the “Vitreous Dose normalized AUC” value [2, 6] was 1.9 nM∙h/nmol, the “Vitreous MRT0-4h” value [2, 6] was 46.9 min and the “Vitreous Tlast” value [2, 6] was 2 h. For the same compound, the “Vitreous Tmax” value [2, 6] was 30 min and the “Vitreous MRT0-4h” value ([2]; local (subconjunctival), co-solvent solution 0.88 mM, 8.8 nmol per eye, mice, listed as R406 salt) was “less than 1 h”.
In the case of COc1cc(Nc2ncc(F)c(Nc3ccc4c(n3)NC(=O)C(C)(C)O4)n2)cc(OC)c1OC [R406], the cytotoxicity ([3]; 1 μM R406, 48 – 72 h exposure, read-out: drop in viability compared to DMSO treated controls) is reported as ~20%, the “reduction in viability compared to DMSO treated controls” value ([3]; 1 μM R406, up to 24 h exposure) is reported as “no reduction in cell viability” and the “maximum intraocular concentration that could be reached from subconjunctival route” value ([2]; DMSO control, 31.4 mM R406 in DMSO, subconjunctival, mice) is reported as “approximately 1 μM”. The “maximal concentration achieved in the vitreous” value ([2]; subconjunctival, 10 μl of R406 solution formulation per eye, mice) was 0.05 µM.
